This is an account of results in PMC7394244 (Journal of medicinal chemistry, 2020).

Where “and” joins values, the source holds several entries; their conditions need not be identical. Equal entries are not always repeated. Where two headings read alike, the source gives them in different places.

For data set [1] the following is noted: cited from earlier work.
The test system of data set [2] is P. falciparum Dd2. As to conditions: read-out: EC50 Dd2 (parental); cited from earlier work.
The conditions of data set [3]: human liver microsomes; cited from earlier work. Background: Liver microsomes are a subcellular fraction often used to study metabolism.
For data set [4] the following is noted: mouse plasma; cited from earlier work.
For data set [5], the system named is R10C1B. Kind of data set: microbe, parasite or virus in culture. The note with it: Plasmodium falciparum, read-out: EC50 R10C1B.
Data set [6] is described as follows: In vitro metabolism, mouse liver microsomes.
The conditions of data set [7]: mouse liver microsomes; cited from earlier work.
The conditions of data set [8]: human plasma; cited from earlier work.
The subject of data set [9] is R2B. Kind of data set: microbe, parasite or virus in culture. As to conditions: Plasmodium falciparum, read-out: EC50 R2B.
The conditions of data set [10]: rat plasma; cited from earlier work.
The conditions of data set [11]: cited from earlier work. This is another data set of the same source.
The conditions of data set [12]: rat liver microsomes; cited from earlier work.
The conditions of data set [13]: cited from earlier work. This is another data set of the same source.
The conditions of data set [14]: cited from earlier work. The source holds these as a separate data set.
For data set [15], the system named is R1BC1A. The data set is described as follows: microbe, parasite or virus in culture. As to conditions: Plasmodium falciparum, read-out: EC50 R1BC1A.
Data set [16] relates to Pf3D7 cells. The data set is described as follows: P. falciparum 3D7 growth inhibition. The data set is classed as cell-based.
In data set [17] the target is T1, PfDHODH (Plasmodium falciparum, UniProt Q08210).
T1 sequence (Q08210 24-569): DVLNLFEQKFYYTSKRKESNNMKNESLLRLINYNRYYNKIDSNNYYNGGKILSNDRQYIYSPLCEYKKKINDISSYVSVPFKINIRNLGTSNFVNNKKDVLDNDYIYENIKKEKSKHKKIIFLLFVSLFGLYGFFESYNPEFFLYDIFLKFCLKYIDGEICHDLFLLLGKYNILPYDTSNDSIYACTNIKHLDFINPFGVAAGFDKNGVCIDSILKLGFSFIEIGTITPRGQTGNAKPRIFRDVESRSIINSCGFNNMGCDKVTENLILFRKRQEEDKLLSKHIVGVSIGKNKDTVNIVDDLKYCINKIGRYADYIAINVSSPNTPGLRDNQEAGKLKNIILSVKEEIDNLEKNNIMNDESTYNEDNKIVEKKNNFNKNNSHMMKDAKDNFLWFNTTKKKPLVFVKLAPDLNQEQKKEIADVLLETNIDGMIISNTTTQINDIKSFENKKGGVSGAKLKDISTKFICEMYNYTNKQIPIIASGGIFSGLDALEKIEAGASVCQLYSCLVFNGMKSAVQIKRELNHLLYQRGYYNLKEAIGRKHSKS
Kind of data set: biochemical. More on the design: species or system P. falciparum.

Data set [18] has as its target hERG (Homo sapiens, UniProt Q12809). Kind of data set: hERG IonWorks patch clamp electrophysiology. Type of data set: cell-based. A general note: Block of hERG is tested as a sign of cardiac risk.
In data set [19] the target is KV1.5 K+ (Homo sapiens, UniProt P22460). Kind of data set: Potassium channel IonWorks patch clamp electrophysiology. The data set is classed as cell-based. On the technique in general: In patch-clamp work, channel activity is measured electrically.
Chain of KV1.5 K+ (P22460 whole entry): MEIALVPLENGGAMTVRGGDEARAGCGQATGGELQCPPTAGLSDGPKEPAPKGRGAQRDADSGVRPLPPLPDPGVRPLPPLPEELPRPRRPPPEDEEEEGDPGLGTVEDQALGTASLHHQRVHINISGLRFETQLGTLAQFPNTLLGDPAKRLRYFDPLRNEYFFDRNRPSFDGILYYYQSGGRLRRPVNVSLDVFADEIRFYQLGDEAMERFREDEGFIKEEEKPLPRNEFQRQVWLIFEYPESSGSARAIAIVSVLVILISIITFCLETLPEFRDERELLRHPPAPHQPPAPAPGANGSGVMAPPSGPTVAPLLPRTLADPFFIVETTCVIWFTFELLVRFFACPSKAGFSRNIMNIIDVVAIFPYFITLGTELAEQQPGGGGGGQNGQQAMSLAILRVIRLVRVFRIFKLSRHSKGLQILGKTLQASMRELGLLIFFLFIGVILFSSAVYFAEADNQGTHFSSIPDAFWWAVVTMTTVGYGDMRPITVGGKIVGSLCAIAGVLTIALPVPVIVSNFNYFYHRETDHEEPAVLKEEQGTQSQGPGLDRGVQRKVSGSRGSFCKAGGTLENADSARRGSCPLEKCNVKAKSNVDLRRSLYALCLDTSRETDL
Data set [20] can be described thus: in vivo. The note with it: male, Swiss outbred, mouse, plasma, iv.
Data set [21] is described as follows: Albumax medium binding. Type of data set: in vitro ADME.
Data set [22] is described as follows: Microsome binding. The data set is classed as in vitro ADME, human.
A short description of data set [23]: Plasma protein binding. The note with it: rat plasma. The data set is classed as in vitro ADME.
Data set [24] in a line: Plasma protein binding. The data set is classed as in vitro ADME. As to conditions: mouse plasma.
Data set [25] in a line: Blood exposure in P. falciparum-infected SCID mice. Type of data set: in vivo. The note with it: NOD-scidIL2Rγnull, mouse, whole blood, po.
Data set [26] in a line: Plasma protein binding. The note with it: human plasma. The data set is classed as in vitro ADME.
[27] abbreviates: Plasmodium falciparum, read-out: EC50 Pf3D7 cells.
The mark [28] stands for this setting: Plasmodium falciparum, read-out: potency on Pf3D7 parasites.

Chain of hERG (Q12809 whole entry): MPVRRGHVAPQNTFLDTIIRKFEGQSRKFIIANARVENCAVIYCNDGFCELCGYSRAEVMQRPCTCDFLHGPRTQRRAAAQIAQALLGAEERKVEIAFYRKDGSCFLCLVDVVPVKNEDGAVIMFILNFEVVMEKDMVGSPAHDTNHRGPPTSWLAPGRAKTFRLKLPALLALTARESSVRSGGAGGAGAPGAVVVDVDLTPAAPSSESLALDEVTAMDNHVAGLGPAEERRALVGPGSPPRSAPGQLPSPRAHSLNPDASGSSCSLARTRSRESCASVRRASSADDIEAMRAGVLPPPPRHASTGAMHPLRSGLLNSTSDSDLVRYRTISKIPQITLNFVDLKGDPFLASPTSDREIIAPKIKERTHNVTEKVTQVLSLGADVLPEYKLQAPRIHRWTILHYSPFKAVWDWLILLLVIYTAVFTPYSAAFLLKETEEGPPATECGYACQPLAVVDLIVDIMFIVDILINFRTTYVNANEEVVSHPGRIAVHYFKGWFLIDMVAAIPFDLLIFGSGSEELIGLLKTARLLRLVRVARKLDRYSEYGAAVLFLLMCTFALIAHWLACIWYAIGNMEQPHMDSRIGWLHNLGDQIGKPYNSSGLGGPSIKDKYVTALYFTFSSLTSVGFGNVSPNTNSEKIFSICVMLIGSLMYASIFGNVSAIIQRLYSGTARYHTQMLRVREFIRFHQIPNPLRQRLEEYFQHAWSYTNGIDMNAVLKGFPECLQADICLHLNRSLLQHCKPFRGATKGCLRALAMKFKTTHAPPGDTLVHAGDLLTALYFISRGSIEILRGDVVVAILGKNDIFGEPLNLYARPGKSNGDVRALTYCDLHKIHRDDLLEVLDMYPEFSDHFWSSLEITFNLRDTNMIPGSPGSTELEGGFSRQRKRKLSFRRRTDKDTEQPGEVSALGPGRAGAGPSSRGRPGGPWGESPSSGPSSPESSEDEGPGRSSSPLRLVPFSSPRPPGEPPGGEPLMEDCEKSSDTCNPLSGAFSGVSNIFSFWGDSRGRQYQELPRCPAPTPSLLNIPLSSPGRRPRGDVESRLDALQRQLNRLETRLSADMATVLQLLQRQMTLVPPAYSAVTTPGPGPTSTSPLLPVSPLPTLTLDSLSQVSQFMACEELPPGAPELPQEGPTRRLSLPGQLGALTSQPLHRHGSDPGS

`Cc1cc(Nc2ccc(S(F)(F)(F)(F)F)cc2)n2nc(C(C)(F)F)nc2n1` [Compound 1]: in [1], the Albumax binding is 83.1 % bound. Also, the EC50 in data set [2] was 4.6 nM; in [5], 120 nM; in [9], 74 nM; in data set [15] it was 80 nM. Moreover, the “H CLint” value in data set [3] was <7 / <7 / <7 μL/min/mg. Besides, the “M plasma protein binding” value in data set [4] was 99.7 % bound. The microsomal CLint (as a rule, the rate of metabolic loss divided by the concentration) at 1 μM in data set [6] worked out at 8 µL/min/mg. In addition, in data set [7], the “M CLint” value is on record as <7 / <7 / <7 μL/min/mg. Moreover, in data set [8], the “H plasma protein binding” value is recorded as 99.9 % bound. Further, the “R plasma protein binding” value in [10] is listed as 97.0 % bound. In addition, the human half-life in data set [11] is ~ 100 hours. Moreover, the “R CLint” value in data set [12] was <7 / <7 / <7 μL/min/mg. Besides, the Microsome binding in data set [13] is 71.7 % bound. Also, in data set [14], the “Solubility FeSSIF (pH 5.8)” value is given as 27.6 μg/mL.
`CCOC(=O)c1[nH]c(C)c(Cc2ccc(OCC)cc2)c1C` [Compound 3, Ethyl 4-(4-ethoxybenzyl)-3,5-dimethyl-1H-pyrrole-2-carboxylate]: the EC50 amounted to 230 nM in data set [16] (setting [27]) and 250 nM in [16] (read-out: EC50 Pf3D7 cells).
For `CCOC(=O)c1[nH]c(C)c(Cc2ccc(C(F)(F)F)cc2)c1C` [Compound 4, Ethyl 3,5-dimethyl-4-(4-(trifluoromethyl)benzyl)-1H-pyrrole-2-carboxylate] the same measures were 61 nM and 71 nM.
As to `CCNC(=O)c1[nH]c(C)c(Cc2ccc(C(F)(F)F)nc2)c1C` [Compound 16, N-Ethyl-3,5-dimethyl-4-((6-(trifluoromethyl)pyridin-3-yl)methyl)-1H-pyrrole-2-carboxamide], in data set [17] (potency on PfDHODH), the IC50 (commonly the midpoint of a concentration-inhibition curve) is less than 50 nM. Moreover, the EC50 in [16] (setting [28]) is less than 50 nM.
In the case of `Cc1[nH]c(C(=O)NC2CC2)c(C)c1Cc1ccc(C(F)(F)F)nc1` [Compound 18, N-Cyclopropyl-3,5-dimethyl-4-((6-(trifluoromethyl)pyridin-3-yl)methyl)-1H-pyrrole-2-carboxamide], the EC50 in [16] (setting [28]) was less than 50 nM.
Take `Cc1[nH]c(C(=O)NC2CCC2)c(C)c1Cc1ccc(C(F)(F)F)nc1` [Compound 19, N-Cyclobutyl-3,5-dimethyl-4-((6-(trifluoromethyl)pyridin-3-yl)methyl)-1H-pyrrole-2-carboxamide]: the IC50 in data set [17] (IC50 PfDHODH) is 72 nM and 42 nM.
For the compound `Cc1[nH]c(C(=O)NC2CCC2)c(C)c1Cc1ccc(C(F)(F)F)cn1` [Compound 25, N-Cyclobutyl-3,5-dimethyl-4-((5-(trifluoromethyl)pyridin-2-yl)methyl)-1H-pyrrole-2-carboxamide], the EC50 in data set [16] (setting [27]) turned out to be 470 nM; in [16] (read-out: EC50 Pf3D7 cells), 680 nM.
In the case of `Cc1c(Cc2ccc(C(F)(F)F)nc2)c[nH]c1C(=O)NC1CC1` [Compound 37], in data set [18], the “Human Ion Channel activity hERG” value is greater than 33 µM. Further, the “Human Ion Channel activity KV1.5 K+” value in data set [19] is greater than 11 µM. Further, the clearance (commonly a measure of how efficiently the substance is removed, as volume per time) at 24 h in data set [20] came to 26.1 mL/min/kg. Also, the Albumax binding in [21] came to 51.8 % bound. Moreover, in data set [22], the Microsome binding came out at 29.9 % bound. For the same compound, the “R plasma protein binding” value in data set [23] is 88.2 % bound. The “M plasma protein binding” value in data set [24] is 88 % bound and 88.9 % bound. Besides, the area under the curve AUC(0-t) (usually the area under the concentration-time curve up to a stated or last time point) in [25] (10 mg/kg) was 680 ng·h/mL. Besides, in [25] (50 mg/kg), the AUC(0-t) was 8600 ng·h/mL and the Cmax (usually the maximum level reached in the sampled fluid or tissue) came to 2520 ng/mL. In data set [26], the “H plasma protein binding” value is 90 % bound.
Consider `Cc1c(Cc2ccc(C(F)(F)F)nc2)c[nH]c1C(=O)NCC(F)(F)F` [Compound 39, 3-Methyl-N-(2,2,2-trifluoroethyl)-4-((6-(trifluoromethyl)pyridin-3-yl)methyl)-1H-pyrrole-2-carboxamide], for which the EC50 in data set [16] (setting [27]) is 44 nM; in data set [16] (read-out: EC50 Pf3D7 cells), 59 nM.
For the compound `Cc1c(Cc2ccc(C(F)(F)F)cc2F)c[nH]c1C(=O)NC1CC1` [Compound 60, N-Cyclopropyl-4-(2-fluoro-4-(trifluoromethyl)benzyl)-3-methyl-1H-pyrrole-2-carboxamide], the EC50 in data set [16] (setting [28]) was less than 30 nM.
On to `Cc1c(Cc2ccc(C(F)(F)F)cc2Cl)c[nH]c1C(=O)NC1CC1` [Compound 66, 4-(2-chloro-4-(trifluoromethyl)benzyl)-N-cyclopropyl-3-methyl-1H-pyrrole-2-carboxamide], for which, in [16] (setting [28]), the EC50 was less than 30 nM.
